Literature values in US7122567B2, “Heterocyclic amide derivatives having glycogen phosphorylase inhibitory activity” (AstraZeneca AB, priority 2002, dated 2006).

Tests used:
[1] = db/db and ob/ob mice following treatment
[2] = conscious dogs, following a glucagon challenge

SMILES | glucagon stimulated glycogenolysis (hepatocytes) | glucose output (hepatocytes) | plasma glucose concentration [1] | arterial plasma glucose [2] | hepatic glucose output [2]
O=C(N[C@@H](Cc1ccc(F)cc1)C(=O)N1CCC(O)CC1)c1cc2cc(Cl)ccc2[nH]1 [CP320626] | reduce | reduce | reduced, in a dose related manner |  | 
CN(C)C(=O)[C@H](O)[C@H](Cc1ccccc1)NC(=O)c1cc2cc(Cl)ccc2[nH]1 [CP91149] | reduce | reduce | reduced, in a dose related manner |  | 
CCN1C(C)=C(C(=O)OC(C)C)C(c2ccccc2Cl)C2=C1COC2=O (centres unmarked) [Bay R 3401] |  |  |  | reduced significantly | reduced significantly
